Our source for the IC50 values is article PMC2248166, “Quantitative peptide binding motifs for 19 human and mouse MHC class I molecules derived using positional scanning combinatorial peptide libraries” (Immunome Research, 2008).

As usually defined, the IC50 is the midpoint of a concentration-inhibition curve. High values mean weaker potency, low ones greater potency.

Where a SMILES comes first, the peptide text is derived from it.

The assay concerns the target HLA A*3201 (Homo sapiens, UniProt P04439, A270S/D101S/D185E/E176V/E277Q/F133L/G103R/G107R/G231S/H175R/I121M/I218V/I322F/K168Q/L105A/L300P/L318F/M331R/P208A/P217A/Q94H/R106L/R138Q/S129P/T104I/T323A/T345S/V100E/V321M/V358M). As to the kind of experiment: biochemical. The format is binding.
Regarding `CC[C@H](C)[C@H](NC(=O)[C@H](CO)NC(=O)[C@@H](NC(=O)[C@H](CCC(=O)O)NC(=O)[C@H](CC(N)=O)NC(=O)[C@H](Cc1ccc(O)cc1)NC(=O)[C@@H](NC(=O)[C@@H](NC(=O)[C@@H](N)CCCNC(=N)N)[C@@H](C)O)[C@@H](C)CC)[C@@H](C)O)C(=O)O` [3102.0366] (H-RTIYNETSI-OH), the IC50 was determined as 1 nM.

In turn, `CC[C@H](C)[C@H](NC(=O)[C@@H](NC(=O)[C@H](CC(C)C)NC(=O)[C@H](C)NC(=O)[C@@H](NC(=O)[C@@H](NC(=O)[C@@H](NC(=O)[C@@H](NC(=O)[C@@H](N)Cc1c[nH]cn1)[C@@H](C)CC)[C@@H](C)CC)[C@@H](C)CC)C(C)C)[C@@H](C)O)C(=O)O` [3102.0368] (H-HIIIVALTI-OH) gave an IC50 of 79 nM. This IC50 is about 79-fold higher than that of the compound before.

`CC[C@H](C)[C@H](N)C(=O)N[C@H](C(=O)N[C@@H](Cc1ccc(O)cc1)C(=O)NCC(=O)N[C@@H](CCCNC(=N)N)C(=O)N[C@@H](CO)C(=O)N[C@@H](CC(N)=O)C(=O)N[C@@H](C)C(=O)N[C@H](C(=O)O)[C@@H](C)CC)C(C)C` [3102.0369] (H-IVYGRSNAI-OH) returned an IC50 of 3.2 nM.

The compound `CC[C@H](C)[C@H](NC(=O)[C@@H](NC(=O)[C@H](Cc1ccccc1)NC(=O)[C@H](CC(C)C)NC(=O)[C@H](Cc1ccccc1)NC(=O)[C@@H](NC(=O)[C@@H](NC(=O)[C@H](CC(C)C)NC(=O)[C@@H](N)CCCCN)[C@@H](C)CC)[C@@H](C)O)C(C)C)C(=O)O` [3102.0370] (H-KLITFLFVI-OH) registered an IC50 of 0.41 nM.

For `CC[C@H](C)[C@H](NC(=O)[C@@H](NC(=O)[C@H](Cc1ccc(O)cc1)NC(=O)[C@H](CCC(=O)O)NC(=O)[C@H](CCCCN)NC(=O)[C@H](Cc1ccccc1)NC(=O)[C@H](CC(N)=O)NC(=O)[C@H](CC(C)C)NC(=O)[C@@H](N)C(C)C)[C@@H](C)O)C(=O)O` [3102.0371] (H-VLNFKEYTI-OH), the half-maximal inhibitory concentration (IC50) worked out at 8.1 nM. This IC50 is about 20-fold higher than that of the compound before.

`CC[C@H](C)[C@H](NC(=O)[C@@H](NC(=O)[C@H](CC(C)C)NC(=O)[C@@H](NC(=O)[C@H](CO)NC(=O)[C@H](CO)NC(=O)[C@@H](NC(=O)[C@H](CO)NC(=O)[C@H](C)N)[C@@H](C)CC)C(C)C)[C@@H](C)O)C(=O)O` [3102.0373] (H-ASISSVLTI-OH) gave a half-maximal inhibitory concentration (IC50) of 13 nM.

`CC[C@H](C)[C@H](NC(=O)[C@H](CC(N)=O)NC(=O)[C@H](Cc1ccc(O)cc1)NC(=O)[C@H](CC(=O)O)NC(=O)[C@@H](NC(=O)[C@H](Cc1ccc(O)cc1)NC(=O)[C@H](CC(N)=O)NC(=O)[C@H](CC(C)C)NC(=O)[C@@H](N)CCSC)C(C)C)C(=O)O` [3102.0374] (H-MLNYVDYNI-OH) showed an IC50 of 1.6 nM.

Regarding `CC[C@H](C)[C@H](N)C(=O)N[C@@H](CC(C)C)C(=O)N1CCC[C@H]1C(=O)N[C@H](C(=O)N[C@H](C(=O)N[C@@H](Cc1ccccc1)C(=O)N[C@@H](CC(C)C)C(=O)N[C@@H](CO)C(=O)N[C@H](C(=O)O)[C@@H](C)CC)[C@@H](C)CC)C(C)C` [3102.0375] (H-ILPVIFLSI-OH), the IC50 came to 4.5 nM.

The compound `CC[C@H](C)[C@H](NC(=O)[C@H](CCC(=O)O)NC(=O)[C@H](Cc1ccccc1)NC(=O)[C@H](CC(N)=O)NC(=O)[C@@H]1CCCN1C(=O)[C@H](CC(N)=O)NC(=O)[C@H](Cc1ccccc1)NC(=O)[C@@H](NC(=O)[C@@H](N)CC(C)C)[C@@H](C)O)C(=O)O` [3102.0377] (H-LTFNPNFEI-OH) showed an IC50 of 5.2 nM.

The compound `CC[C@H](C)[C@H](NC(=O)[C@H](Cc1c[nH]cn1)NC(=O)[C@@H](NC(=O)[C@H](CCSC)NC(=O)[C@H](CCSC)NC(=O)[C@H](CCCCN)NC(=O)[C@H](CCSC)NC(=O)[C@@H](NC(=O)[C@@H](N)CCSC)[C@@H](C)O)C(C)C)C(=O)O` [3102.0378] (H-MTMKMMVHI-OH) came in with an IC50 of 4.8 nM.

In the case of `CC[C@H](C)[C@H](NC(=O)[C@H](C)NC(=O)[C@H](Cc1ccc(O)cc1)NC(=O)[C@H](CO)NC(=O)[C@H](Cc1c[nH]cn1)NC(=O)[C@H](Cc1ccccc1)NC(=O)[C@H](CC(C)C)NC(=O)[C@H](CC(C)C)NC(=O)[C@@H](N)CC(C)C)C(=O)O` [3102.0379] (H-LLLFHSYAI-OH), the IC50 is 11 nM.
